Here are results for six compounds from patent US8921360B2, “Heterobicycle-substituted azolyl benzene fungicides” (priority 2009, dated 2014).

What all share (type): in vivo
The test system of experiment [1] is Puccinia recondita f sp. tritici. In words: Test B: wheat leaf rust, preventive spray on wheat seedlings. To be noted: Puccinia recondita, 192 h, wheat seedlings sprayed to run-off, inoculated next day, rated after 24 h + 7 days, read-out: Percentage Disease Control Test B.
For experiment [2], the system named is Puccinia recondita f. sp. tritici. In words: Test C: wheat leaf rust, spray the day after inoculation of wheat seedlings.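 Also: Curative spray on infected wheat seedlings with visual rating 5 days later.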 The note with it: Puccinia recondita, 120 h, wheat seedlings inoculated, sprayed the following day, rated after 5 days, read-out: Percentage Disease Control Test C. In outline: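 Wheat seedlings inoculated with P. recondita spores, held 24 h at 20 °C in saturated atmosphere, then sprayed to run-off next day (curative). Test suspension in acetone/water with 250 ppm surfactant, 200 ppm (≈800 g/ha) or 40 ppm. Disease rated visually after 5 days at 20 °C as % control relative to untreated.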

Experiment [3] deals with Botrytis cinerea. The experiment in a line: Test F: tomato botrytis, preventive spray on tomato seedlings. The note with it: Botrytis cinerea, topical, 120 h, tomato seedlings sprayed to run-off, inoculated next day, rated after 48 h + 3 days, read-out: Percentage Disease Control Test F. The gist of the method:
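Tomato seedlings sprayed to run-off with compound suspended in acetone/water (50/50) with 250 ppm Trem® 014, at 200 ppm (800 g/ha) or 40 ppm where marked, then inoculated next day with B. cinerea spores. Held 48 h saturated at 20° C, then 3 days at 27° C; disease control rated visually, 0–100 versus untreated controls.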

Experiment [4] has as its system Alternaria solani. In words: Test G: tomato early blight, preventive spray on tomato seedlings. The note with it: Alternaria solani, topical, 168 h, tomato seedlings sprayed to run-off, inoculated next day, rated after 48 h + 5 days, read-out: Percentage Disease Control Test G. The gist of the method: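 Tomato seedlings sprayed to run-off with compound at 200 ppm (≈800 g/ha) or 40 ppm where marked, in acetone/water with 250 ppm Trem 014. Plants inoculated with A. solani spores the next day, held 48 h saturated at 27 °C, then 5 days at 24 °C. Disease visually rated as % control relative to untreated plants.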

The subject of experiment [5] is Septoria tritici. In words: Test E: wheat leaf blotch, preventive spray on wheat seedlings. The note with it: Zymoseptoria tritici, 456 h; 200 ppm; wheat seedlings sprayed to run-off, inoculated next day, rated after 48 h + 19 days; read-out: Percentage Disease Control Test E. In outline: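 Wheat seedlings were sprayed to run-off with compound at 200 ppm (≈800 g/ha) or 40 ppm in acetone/water with surfactant. Spores were inoculated the next day, followed by 48 h saturated atmosphere at 24° C, then 19 days at 20° C. Disease control was visually rated 0–100 relative to controls.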

`COC(=O)NCc1cc(-c2ccn(-c3ccc4c(c3)C=C(C(=O)OC)CO4)n2)ccc1Cl` [Compound 23, methyl 6-[3-[4-chloro-3-[[(methoxycarbonyl)amino]methyl]phenyl]-1H-pyrazol-1-yl]-2H-1-benzopyran-3-carboxylate]: the pest or weed control at 200 ppm in experiment [1] was 94%; in experiment [2], 0%; in experiment [3], 0%; in experiment [4], 0%; in experiment [5], 0%.

For the compound `COC(=O)NCc1cc(-c2ccn(-c3ccc4c(c3)C=C(C(=O)O)CO4)n2)ccc1Cl` [Compound 24, 6-[3-[4-chloro-3-[[(methoxycarbonyl)amino]methyl]phenyl]-1H-pyrazol-1-yl]-2H-1-benzopyran-3-carboxylic acid], the pest or weed control at 200 ppm came out at 96% in experiment [1]; 0% in experiment [2]; 0% in experiment [3]; 0% in experiment [4]; 0% in experiment [5].

On to `COC(=O)NCc1cc(-n2ccc(-c3ccc4c(c3)CCCO4)n2)ccc1C` [Compound 25, methyl N-[[5-[3-(3,4-dihydro-2H-1-benzopyran-6-yl)-1H-pyrazol-1-yl]-2-methylphenyl]methyl]carbamate], for which the pest or weed control at 200 ppm stood at 100% in experiment [1]; 100% in experiment [2]; 0% in experiment [3]; 0% in experiment [4]; 100% in experiment [5].

Consider `COC(=O)NCc1cc(-c2ccn(-c3ccc4c(c3)CC3(CO4)OCCO3)n2)ccc1Cl` [Compound 28, methyl N-[[2-chloro-5-(1-spiro[2H-1-benzopyran-3(4H), 2′-[1,3]dioxolan]-6-yl-1H-pyrazol-3-yl)phenyl]methyl]carbamate], for which the pest or weed control at 200 ppm in experiment [1] stood at 100%; in experiment [2] it was 100%; in experiment [3] it was 0%; in experiment [4] it was 90%; in experiment [5], 93%.

Consider `COC(=O)NCc1cc(-c2ccn(-c3ccc4c(c3)CC(=O)CO4)n2)ccc1Cl` [Compound 29, methyl N-[[2-chloro-5-[1-(3,4-dihydro-3-oxo-2H-1-benzopyran-6-yl)-1H-pyrazol-3-yl]phenyl]methyl]carbamate], for which the pest or weed control at 200 ppm stood at 99% in experiment [1]; 0% in experiment [2]; 0% in experiment [3]; 17% in experiment [4]; 10% in experiment [5].

Turning to `COC(=O)NCc1cc(-c2ccn(-c3ccc4c(c3)CC(O)CO4)n2)ccc1Cl` (stereo not drawn) [Compound 30, methyl N-[[2-chloro-5-[1-(3,4-dihydro-3-hydroxy-2H-1-benzopyran-6-yl)-1H-pyrazol-3-yl]phenyl]methyl]carbamate], the pest or weed control at 200 ppm was determined as 100% in experiment [1]; 9% in experiment [2]; 0% in experiment [3]; 94% in experiment [4]; 78% in experiment [5].
